Where two headings read alike, the source gives them in different places.
Biological target: T1, nitrendipine binding (purified sarcolemal vesicles) (Homo sapiens, UniProt Q13936)
T1 construct: purified sarcolemal vesicles in 50 mM tris-HCl; from tissue
Experiment: nitrendipine binding assay ([^3 H] nitrendipine, purified sarcolemal vesicles)
Experimental: As stated earlier, the compounds of the present invention have a property that enables them to be used as calcium entry blockers in the treatment of cardiovascular disorders.
In a representative assay, […] of purified sarcolemal vesicles in 50 mM tris-HCl, 10 uM calcium chloride, and […] magnesium chloride at pH 7.4 were incubated with […] [^3 H] nitrendipine (78 Ci/mmol) with or without test compound in a final volume of […] for 3 hours at 25° C. The inhibition constant Ki is determined according to the following equation: [formula] where I50 is the compound concentration that produces 50 percent inhibiton of binding, [L] is ligand concentration, and kd is the affinity constant of the ligand.

[1] = purified sarcolemal vesicles, 50 mM tris-HCl, pH 7.4, 0.23 mM [^3 H] nitrendipine, 3 hours at 25° C., read-out: Ki, Inhibition of Nitrendipine Binding

T1 sequence (Q13936 whole entry): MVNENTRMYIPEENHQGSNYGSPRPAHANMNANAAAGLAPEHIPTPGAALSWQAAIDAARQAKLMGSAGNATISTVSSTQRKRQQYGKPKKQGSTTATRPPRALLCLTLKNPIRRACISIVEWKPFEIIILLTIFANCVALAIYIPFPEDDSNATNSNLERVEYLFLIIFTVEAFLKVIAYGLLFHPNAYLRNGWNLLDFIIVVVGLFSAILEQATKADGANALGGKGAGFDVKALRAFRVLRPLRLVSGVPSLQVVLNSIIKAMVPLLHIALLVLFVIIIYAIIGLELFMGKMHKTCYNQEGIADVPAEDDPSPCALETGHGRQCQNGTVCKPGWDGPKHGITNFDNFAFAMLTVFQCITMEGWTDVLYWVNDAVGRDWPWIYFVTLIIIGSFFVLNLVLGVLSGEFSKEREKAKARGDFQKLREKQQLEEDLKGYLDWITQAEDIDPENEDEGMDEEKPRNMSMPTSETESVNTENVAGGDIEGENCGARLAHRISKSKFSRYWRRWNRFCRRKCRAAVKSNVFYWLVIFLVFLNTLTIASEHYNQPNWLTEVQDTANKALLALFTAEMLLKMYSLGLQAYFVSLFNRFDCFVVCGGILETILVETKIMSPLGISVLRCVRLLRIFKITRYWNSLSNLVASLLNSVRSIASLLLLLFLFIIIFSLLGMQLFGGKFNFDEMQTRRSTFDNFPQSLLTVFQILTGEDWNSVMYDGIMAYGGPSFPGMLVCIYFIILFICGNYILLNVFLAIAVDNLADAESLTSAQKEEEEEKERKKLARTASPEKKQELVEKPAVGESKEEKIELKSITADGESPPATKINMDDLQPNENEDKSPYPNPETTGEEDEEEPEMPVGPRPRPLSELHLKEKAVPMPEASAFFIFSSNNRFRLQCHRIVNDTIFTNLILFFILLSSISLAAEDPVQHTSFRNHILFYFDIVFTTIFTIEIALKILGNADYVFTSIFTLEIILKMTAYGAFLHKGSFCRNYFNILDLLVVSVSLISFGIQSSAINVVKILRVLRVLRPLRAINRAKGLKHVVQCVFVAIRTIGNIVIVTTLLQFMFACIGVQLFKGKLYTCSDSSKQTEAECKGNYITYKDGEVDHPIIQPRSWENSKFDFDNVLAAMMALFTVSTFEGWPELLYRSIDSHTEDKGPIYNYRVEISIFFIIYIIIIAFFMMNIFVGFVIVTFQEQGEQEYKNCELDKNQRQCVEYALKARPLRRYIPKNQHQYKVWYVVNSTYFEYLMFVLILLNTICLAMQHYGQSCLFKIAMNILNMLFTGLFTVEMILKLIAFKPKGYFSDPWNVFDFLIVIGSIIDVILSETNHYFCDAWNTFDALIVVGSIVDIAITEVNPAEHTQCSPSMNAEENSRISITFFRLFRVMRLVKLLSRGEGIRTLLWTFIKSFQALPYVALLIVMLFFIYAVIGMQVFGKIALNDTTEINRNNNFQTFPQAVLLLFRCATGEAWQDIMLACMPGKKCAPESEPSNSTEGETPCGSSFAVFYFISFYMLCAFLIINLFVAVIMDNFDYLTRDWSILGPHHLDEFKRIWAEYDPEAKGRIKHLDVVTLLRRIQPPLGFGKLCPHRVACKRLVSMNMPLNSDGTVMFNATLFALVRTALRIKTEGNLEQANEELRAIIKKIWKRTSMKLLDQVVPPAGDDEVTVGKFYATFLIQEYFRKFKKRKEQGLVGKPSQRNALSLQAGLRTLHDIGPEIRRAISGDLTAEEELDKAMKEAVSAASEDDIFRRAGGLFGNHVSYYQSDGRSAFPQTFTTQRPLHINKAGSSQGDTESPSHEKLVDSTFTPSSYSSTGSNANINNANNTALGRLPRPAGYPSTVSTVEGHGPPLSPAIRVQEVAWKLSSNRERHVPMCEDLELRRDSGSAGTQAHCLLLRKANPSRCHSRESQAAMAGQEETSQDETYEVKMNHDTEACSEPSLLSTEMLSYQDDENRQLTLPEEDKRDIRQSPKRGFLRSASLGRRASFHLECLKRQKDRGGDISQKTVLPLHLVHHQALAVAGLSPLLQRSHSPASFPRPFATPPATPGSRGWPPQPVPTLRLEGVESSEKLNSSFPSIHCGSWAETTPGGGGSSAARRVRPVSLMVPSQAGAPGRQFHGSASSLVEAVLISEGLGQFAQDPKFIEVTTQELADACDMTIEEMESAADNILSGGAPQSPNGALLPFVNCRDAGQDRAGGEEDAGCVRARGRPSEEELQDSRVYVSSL
T1 sequence (P54289 25-944 partner limits assumed): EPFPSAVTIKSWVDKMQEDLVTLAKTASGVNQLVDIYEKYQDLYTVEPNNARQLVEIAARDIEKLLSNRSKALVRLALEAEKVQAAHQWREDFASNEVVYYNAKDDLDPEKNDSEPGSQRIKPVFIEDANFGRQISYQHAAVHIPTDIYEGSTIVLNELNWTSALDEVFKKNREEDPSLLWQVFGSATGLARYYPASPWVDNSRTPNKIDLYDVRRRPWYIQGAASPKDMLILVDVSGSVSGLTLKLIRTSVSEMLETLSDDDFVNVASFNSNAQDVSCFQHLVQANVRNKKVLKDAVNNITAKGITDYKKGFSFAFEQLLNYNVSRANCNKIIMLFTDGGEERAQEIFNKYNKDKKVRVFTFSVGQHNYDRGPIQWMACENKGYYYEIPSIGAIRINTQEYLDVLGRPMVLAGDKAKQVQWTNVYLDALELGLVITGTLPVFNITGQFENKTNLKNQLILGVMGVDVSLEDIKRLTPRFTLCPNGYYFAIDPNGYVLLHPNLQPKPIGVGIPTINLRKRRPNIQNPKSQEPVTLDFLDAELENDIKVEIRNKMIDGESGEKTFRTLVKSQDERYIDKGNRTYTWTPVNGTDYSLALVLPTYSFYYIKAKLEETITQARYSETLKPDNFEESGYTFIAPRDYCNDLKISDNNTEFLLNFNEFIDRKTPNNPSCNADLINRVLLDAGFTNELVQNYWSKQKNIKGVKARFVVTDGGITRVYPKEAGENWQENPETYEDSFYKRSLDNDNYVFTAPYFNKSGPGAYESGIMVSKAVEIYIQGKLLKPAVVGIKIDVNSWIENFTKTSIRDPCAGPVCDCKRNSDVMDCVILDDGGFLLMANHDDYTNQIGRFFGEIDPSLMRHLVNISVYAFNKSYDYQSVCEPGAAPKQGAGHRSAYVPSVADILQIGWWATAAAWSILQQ
T1 sequence (P54289 945-1103 partner limits assumed): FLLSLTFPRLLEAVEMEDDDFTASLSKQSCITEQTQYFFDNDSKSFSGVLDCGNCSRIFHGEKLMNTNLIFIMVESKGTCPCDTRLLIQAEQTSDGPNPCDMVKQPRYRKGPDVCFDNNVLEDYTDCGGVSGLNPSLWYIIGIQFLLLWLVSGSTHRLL
T1 sequence (Q08289 whole entry partner): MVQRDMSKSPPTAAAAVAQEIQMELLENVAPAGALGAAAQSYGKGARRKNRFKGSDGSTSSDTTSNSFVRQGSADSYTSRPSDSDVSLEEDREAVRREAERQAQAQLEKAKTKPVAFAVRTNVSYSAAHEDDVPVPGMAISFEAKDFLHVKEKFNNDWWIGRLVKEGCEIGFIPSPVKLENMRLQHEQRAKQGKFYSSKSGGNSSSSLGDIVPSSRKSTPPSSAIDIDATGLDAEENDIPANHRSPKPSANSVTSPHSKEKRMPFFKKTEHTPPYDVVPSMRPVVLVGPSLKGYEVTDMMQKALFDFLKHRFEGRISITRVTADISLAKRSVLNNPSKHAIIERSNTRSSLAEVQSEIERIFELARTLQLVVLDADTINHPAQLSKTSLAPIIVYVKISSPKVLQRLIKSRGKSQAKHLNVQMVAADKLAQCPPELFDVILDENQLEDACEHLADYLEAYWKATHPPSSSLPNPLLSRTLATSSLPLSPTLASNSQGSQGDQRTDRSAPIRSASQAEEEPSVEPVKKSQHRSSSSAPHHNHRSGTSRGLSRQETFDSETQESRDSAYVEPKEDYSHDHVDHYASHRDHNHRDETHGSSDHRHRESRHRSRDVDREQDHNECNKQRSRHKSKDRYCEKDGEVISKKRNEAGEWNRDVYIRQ

SMILES | Ki | Ki [1]
COC(=O)C1C(c2ccccc2)C2(C(=O)OC)C(C)=NC1(C)CC2C[Si](C)(C)C (stereo not drawn) [Example 1, Dimethyl 1,3-dimethyl-5-phenyl-8-[(trimethylsilyl)methyl]-2-azabicyclo[2.2.2]oct-2-ene-4,6-dicarboxylate] | 17 µM | 
COC(=O)C1C(c2ccccc2)C2(C(=O)OC)C(C)=NC1(C)CC2c1ccccc1 (stereo not drawn) [Example 2] |  | 34 µM
COC(=O)C1C(c2ccccc2)C2(C(=O)OC)C(C)=NC1(C)C1CC=CC12 (stereo not drawn) [Example 3, Dimethyl 1,4A,7,8A-tetrahydro-1,3-dimethyl-8-phenyl-1,4-ethano-4H-2-azetidinyl-4,9-dicarboxylate] |  | 61 µM

Source: patent US4808718A, “Fused polycyclic and bridged compounds useful as calcium channel blockers” (Merck & Co., Inc., priority 1986, dated 1989)
